# Earlier results as cited in patent publication US20090215892A1, “Octanol Formulations and Methods of Treatment Using the Same” (priority 2005, published 2009).
# Assays:
# essential tremor [1] = details: lactose capsule form
# mice = details: tested orally in mice
# essential tremor [2] = details: twelve patients
# [3] = ordinary conditions of use and storage
# [4] = test system: hereditary essential tremor; details: patients with hereditary essential tremor
structure (smiles),measurement,setting,value
"CCCCCCCCO [Example 1-octanol, 1-octanol]",side-effect noted,essential tremor [1]; single oral doses up to 64 mg/kg,unusual taste
same,tolerated dose,"essential tremor [1]; single oral doses, patients with essential tremor",up to 64 mg/kg
same,toxicity LD5O,mice,1790 mg/kg
same,duration of reduction of peak tremor amplitude versus baseline,"essential tremor [2]; 1 mg/kg 1-octanol, no improvement in placebo group (Bushara 2002)",up to 2 hours
same,change of tremor amplitude frequency,"essential tremor [2]; single oral dose of 1 mg/kg, anhydrous lactose coated capsule (Bushara 2004)",decrease
same,solubility in water,,slightly soluble
same,Solubility in Water at 40° C. (Wt %),,0.065 Wt %
same,stability,[3],stable
"CCCCC(O)CCC (centres unmarked) [Example 4-octanol, 4-octanol]",Solubility in Water at 40° C. (Wt %),,0.095 Wt %
"CCCCCCC(C)O (centres unmarked) [Example 2-octanol, 2-octanol]",Solubility in Water at 40° C. (Wt %),,0.089 Wt %
CCO [ethanol],patients in whom treatment was effective,[4],50%
